Laboratory results reported in patent US20230093099A1, “COMPOUNDS AND METHODS OF TREATING CANCERS” (CULLGEN (SHANGHAI), INC., priority 2019, published 2023).

system: RS4;11 cells; test: Cell viability assay (CellTiter-Glo) in RS4;11 cells; assay type: cell-based; conditions: Homo sapiens, 72 h; RS4;11 cells; cell viability, 3 days, CellTiter-Glo; read-out: IC50
In short: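 Three-day compound treatment of RS4;11 ALL cells (5000/well, 3-fold dilution series of 8 or 12 points), with IC50 from a nonlinear least-squares fit to CellTiter-Glo viability data.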

Row | IC50 | Structure (SMILES)
1 | > 10 µM | Cc1cnc(Nc2ccc(N3CCN(C(=O)CCCCC(=O)N[C@H](C(=O)N4C[C@H](O)C[C@H]4C(=O)NCc4ccc(-c5scnc5C)cc4)C(C)(C)C)CC3)cc2)nc1Nc1cccc(S(=O)(=O)NC(C)(C)C)c1 [JA-024, (2S,4R)-1-((S)-2-(6-(4-(4-((4-((3-(N-(tert-Butyl)sulfamoyl)phenyl)amino)-5-methylpyrimidin-2-yl)amino)phenyl)piperazin-1-yl)-6-oxohexanamido)-3,3-dimethylbutanoyl)-4-hydroxy-N-(4-(4-methylthiazol-5-yl)benzyl)pyrrolidine-2-carboxamide]
2 | > 10 µM | CS(=O)(=O)c1ccc(-c2cccc3nc(Nc4ccc(N5CCN(C(=O)CCCCCNc6cccc7c6C(=O)N(C6CCC(=O)NC6=O)C7=O)CC5)cc4)nn23)cc1 (stereo not shown) [JA-013, 2-(2,6-Dioxo-piperidin-3-yl)-4-[6-(4-{4-[5-(4-methanesulfonyl-phenyl)-[1,2,4]triazolo[1,5-a]pyridin-2-ylamino]-phenyl}-piperazin-1-yl)-6-oxo-hexylamino]-isoindole-1,3-dione]
3 | > 0.5 µM | Cn1c(=O)n(C2CCC(=O)NC2=O)c2cccc(NCCCCCCC(=O)N3CCN(c4ccc(Nc5nc6cccc(-c7ccc(S(C)(=O)=O)cc7)n6n5)cc4)CC3)c21 (stereo not shown) [JA-285, 3-(3-Methyl-4-((7-(4-(4-((5-(4-(methylsulfonyl)phenyl)-[1,2,4]triazolo[1,5-a]pyridin-2-yl)amino)phenyl)piperazin-1-yl)-7-oxoheptyl)amino)-2-oxo-2,3-dihydro-1H-benzo[d]imidazol-1-yl)piperidine-2,6-dione]
4 | 0.229 µM | Cc1cnc(Nc2ccc(N3CCN(CC(=O)NCCCCCCCNc4ccc5c(c4)C(=O)N(C4CCC(=O)NC4=O)C5=O)CC3)cc2)nc1Nc1cccc(S(=O)(=O)NC(C)(C)C)c1 (stereo not shown) [JA-246, 2-(4-(4-((4-((3-(N-(tert-butyl)sulfamoyl)phenyl)amino)-5-methylpyrimidin-2-yl)amino)phenyl)piperazin-1-yl)-N-(7-((2-(2,6-dioxopiperidin-3-yl)-1,3-dioxoisoindolin-5-yl)amino)heptyl)acetamide]
5 | 2.98 µM | Cc1cnc(Nc2ccc(N3CCN(CC(=O)NCCCNc4cccc5c4C(=O)N(C4CCC(=O)NC4=O)C5=O)CC3)cc2)nc1Nc1cccc(S(=O)(=O)NC(C)(C)C)c1 (stereo not shown) [JA-091, 2-(4-(4-((4-((3-(N-(tert-Butyl)sulfamoyl)phenyl)amino)-5-methylpyrimidin-2-yl)amino)phenyl)piperazin-1-yl)-N-(3-((2-(2,6-dioxopiperidin-3-yl)-1,3-dioxoisoindolin-4-yl)amino)propyl)acetamide]
6 | 3.95 µM | CS(=O)(=O)c1ccc(-c2cccc3nc(Nc4ccc(N5CCN(C(=O)CCOCCOCCOCCNc6cccc7c6C(=O)N(C6CCC(=O)NC6=O)C7=O)CC5)cc4)nn23)cc1 (stereo not shown) [JA-085, 2-(2,6-Dioxo-piperidin-3-yl)-4-[2-(2-{2-[3-(4-{4-[5-(4-methanesulfonyl-phenyl)-[1,2,4]triazolo[1,5-a]pyridin-2-ylamino]-phenyl}-piperazin-1-yl)-3-oxo-propoxy]-ethoxy}-ethoxy)-ethylamino]-isoindole-1,3-dione]
7 | > 10 µM | Cc1cnc(Nc2ccc(N3CCN(CC(=O)NCCOCCOCCOCCOCCC(=O)NC(C(=O)N4C[C@H](O)C[C@H]4C(=O)NCc4ccc(-c5scnc5C)cc4)C(C)(C)C)CC3)cc2)nc1Nc1cccc(S(=O)(=O)NC(C)(C)C)c1 (stereo in doubt) [JA-222, (2S,4R)-1-((S)-20-(tert-butyl)-1-(4-(4-((4-((3-(N-(tert-butyl)sulfamoyl)phenyl)amino)-5-methylpyrimidin-2-yl)amino)phenyl)piperazin-1-yl)-2,18-dioxo-6,9,12,15-tetraoxa-3,19-diazahenicosan-21-oyl)-4-hydroxy-N-(4-(4-methylthiazol-5-yl)benzyl)pyrrolidine-2-carboxamide]
8 | > 0.5 µM | Cn1c(=O)n(C2CCC(=O)NC2=O)c2cccc(NCCCCC(=O)N3CCC(n4cc(-c5cnc6cccc(-c7cc(F)c(CN8CCOCC8)c(F)c7)c6n5)cn4)CC3)c21 (stereo not shown) [JA-286, 3-(4-((5-(4-(4-(8-(3,5-Difluoro-4-(morpholinomethyl)phenyl)quinoxalin-2-yl)-1H-pyrazol-1-yl)piperidin-1-yl)-5-oxopentyl)amino)-3-methyl-2-oxo-2,3-dihydro-1H-benzo[d]imidazol-1-yl)piperidine-2,6-dione]
9 | 0.247 µM | CS(=O)(=O)c1ccc(-c2cccc3nc(Nc4ccc(N5CCN(C(=O)CCCCC#Cc6ccc7c(c6)C(=O)N(C6CCC(=O)NC6=O)C7=O)CC5)cc4)nn23)cc1 (stereo not shown) [JA-248, 2-(2,6-Dioxopiperidin-3-yl)-5-(7-(4-(4-((5-(4-(methylsulfonyl)phenyl)-[1,2,4]triazolo[1,5-a]pyridin-2-yl)amino)phenyl)piperazin-1-yl)-7-oxohept-1-yn-1-yl)isoindoline-1,3-dione]
10 | 0.369 µM | Cc1cnc(Nc2ccc(N3CCN(CC(=O)NCCOCCOCCOCCNc4cccc5c4C(=O)N(C4CCC(=O)NC4=O)C5=O)CC3)cc2)nc1Nc1cccc(S(=O)(=O)NC(C)(C)C)c1 (stereo not shown) [JA-088, 2-(4-(4-((4-((3-(N-(tert-Butyl)sulfamoyl)phenyl)amino)-5-methylpyrimidin-2-yl)amino)phenyl)piperazin-1-yl)-N-(2-(2-(2-(2-((2-(2,6-dioxopiperidin-3-yl)-1,3-dioxoisoindolin-4-yl)amino)ethoxy)ethoxy)ethoxy)ethyl)acetamide]
11 | 3.17 µM | O=C1CCC(N2C(=O)c3cccc(NCCCCCC(=O)N4CCC(n5cc(-c6cnc7cccc(-c8cc(F)c(CN9CCOCC9)c(F)c8)c7n6)cn5)CC4)c3C2=O)C(=O)N1 (stereo not shown) [JA-001, 4-[[6-[4-[4-[8-[3,5-Difluoro-4-(morpholinomethyl)phenyl]quinoxalin-2-yl]pyrazol-1-yl]-1-piperidyl]-6-oxo-hexyl]amino]-2-(2,6-dioxo-3-piperidyl)isoindoline-1,3-dione]
12 | > 10 µM | Cc1ncsc1-c1ccc(CNC(=O)[C@@H]2C[C@@H](O)CN2C(=O)[C@@H](NC(=O)CCCCCC(=O)N2CCN(c3ccc(Nc4nc5cccc(-c6ccc(S(C)(=O)=O)cc6)n5n4)cc3)CC2)C(C)(C)C)cc1 [JA-076, (2S,4R)-1-((S)-3,3-Dimethyl-2-(7-(4-(4-((5-(4-(methylsulfonyl)phenyl)-[1,2,4]triazolo[1,5-a]pyridin-2-yl)amino)phenyl)piperazin-1-yl)-7-oxoheptanamido)butanoyl)-4-hydroxy-N-(4-(4-methylthiazol-5-yl)benzyl)pyrrolidine-2-carboxamide]
13 | > 10 µM | Cc1cnc(Nc2ccc(N3CCN(CC(=O)NCCCCCCC(=O)N[C@H](C(=O)N4C[C@H](O)C[C@H]4C(=O)NCc4ccc(-c5scnc5C)cc4)C(C)(C)C)CC3)cc2)nc1Nc1cccc(S(=O)(=O)NC(C)(C)C)c1 [JA-102, (2S,4R)-1-((S)-2-(7-(2-(4-(4-((4-((3-(N-(tert-Butyl)sulfamoyl)phenyl)amino)-5-methylpyrimidin-2-yl)amino)phenyl)piperazin-1-yl)acetamido)heptanamido)-3,3-dimethylbutanoyl)-4-hydroxy-N-(4-(4-methylthiazol-5-yl)benzyl)pyrrolidine-2-carboxamide]
14 | 0.128 µM | O=C(CN1CCC(n2cc(-c3cnc4cccc(-c5cc(F)c(CN6CCOCC6)c(F)c5)c4n3)cn2)CC1)NCCCNc1ccc2c(c1)C(=O)N(C1CCC(=O)NC1=O)C2=O (stereo not shown) [JA-175, 2-(4-(4-(8-(3,5-Difluoro-4-(morpholinomethyl)phenyl)quinoxalin-2-yl)-1H-pyrazol-1-yl)piperidin-1-yl)-N-(3-((2-(2,6-dioxopiperidin-3-yl)-1,3-dioxoisoindolin-5-yl)amino)propyl)acetamide]
15 | > 10 µM | Cc1ncsc1-c1ccc(CNC(=O)[C@@H]2C[C@@H](O)CN2C(=O)[C@@H](NC(=O)COCCNC(=O)CN2CCC(n3cc(-c4cnc5cccc(-c6cc(F)c(CN7CCOCC7)c(F)c6)c5n4)cn3)CC2)C(C)(C)C)cc1 [JA-153, (2S,4R)-1-((S)-2-(2-(2-(2-(4-(4-(8-(3,5-Difluoro-4-(morpholinomethyl)phenyl)quinoxalin-2-yl)-1H-pyrazol-1-yl)piperidin-1-yl)acetamido)ethoxy)acetamido)-3,3-dimethylbutanoyl)-4-hydroxy-N-(4-(4-methylthiazol-5-yl)benzyl)pyrrolidine-2-carboxamide]
16 | > 10 µM | Cc1ncsc1-c1ccc(CNC(=O)[C@@H]2C[C@@H](O)CN2C(=O)[C@@H](NC(=O)CCCCCCNC(=O)CN2CCN(c3ccc(Nc4nc5cccc(-c6ccc(S(C)(=O)=O)cc6)n5n4)cc3)CC2)C(C)(C)C)cc1 [JA-123, (2S,4R)-1-((S)-3,3-Dimethyl-2-(7-(2-(4-(4-((5-(4-(methylsulfonyl)phenyl)-[1,2,4]triazolo[1,5-a]pyridin-2-yl)amino)phenyl)piperazin-1-yl)acetamido)heptanamido)butanoyl)-4-hydroxy-N-(4-(4-methylthiazol-5-yl)benzyl)pyrrolidine-2-carboxamide]
17 | > 10 µM | O=C1CCC(N2C(=O)c3cccc(NCCOCCOCCC(=O)N4CCC(n5cc(-c6cnc7cccc(-c8cc(F)c(CN9CCOCC9)c(F)c8)c7n6)cn5)CC4)c3C2=O)C(=O)N1 (stereo not shown) [JA-039, 4-[2-[2-[3-[4-[4-[8-[3,5-Difluoro-4-(morpholinomethyl)phenyl]quinoxalin-2-yl]pyrazol-1-yl]-1-piperidyl]-3-oxo-propoxy]ethoxy]ethylamino]-2-(2,6-dioxo-3-piperidyl)isoindoline-1,3-dione]
18 | > 10 µM | CS(=O)(=O)c1ccc(-c2cccc3nc(Nc4ccc(N5CCN(CC(=O)NCCCCCNc6cccc7c6C(=O)N(C6CCC(=O)NC6=O)C7=O)CC5)cc4)nn23)cc1 (stereo not shown) [JA-113, N-(5-((2-(2,6-Dioxopiperidin-3-yl)-1,3-dioxoisoindolin-4-yl)amino)pentyl)-2-(4-(4-((5-(4-(methylsulfonyl)phenyl)-[1,2,4]triazolo[1,5-a]pyridin-2-yl)amino)phenyl)piperazin-1-yl)acetamide]
19 | > 10 µM | O=C(CN1CCC(n2cc(-c3cnc4cccc(-c5cc(F)c(CN6CCOCC6)c(F)c5)c4n3)cn2)CC1)NCCOCCOCCNc1cccc2c1C(=O)N(C1CCC(=O)NC1=O)C2=O (stereo not shown) [JA-140, 2-[4-[4-[8-[3,5-Difluoro-4-(morpholinomethyl)phenyl]quinoxalin-2-yl]pyrazol-1-yl]-1-piperidyl]-N-[2-[2-[2-[[2-(2,6-dioxo-3-piperidyl)-1,3-dioxo-isoindolin-4-yl]amino]ethoxy]ethoxy]ethyl]acetamide]
